{"source": "ChEMBL document CHEMBL4390701", "about": "“Discovery of 5-(5-fluoro-1H-pyrrolo[2,3-b]pyridin-3-yl)pyrazin-2(1H)-one derivatives as new potent PB2 inhibitors” (Bioorg Med Chem Lett, 2019)", "key": {"[1]": {"experiment": "Cytotoxicity against MDCK cells assessed as reduction in cell viability measured after 72 hrs by alamar blue assay", "assay_type": "cell-based, Canis lupus familiaris", "conditions": "dog"}, "Influenza A virus": {"test_system": "Influenza A virus", "experiment": "Antiviral activity against Influenza A virus (A/PR/8/34 (H1N1)) infected in MDCK cells assessed as reduction in viral replication preincubated for 1 hr followed by compound washout and measured after 48 hrs", "assay_type": "functional, organism-based, A/Puerto Rico/8/1934(H1N1)"}, "[2]": {"test_system": "unidentified influenza virus", "experiment": "Binding affinity to influenza virus PB2 transformed into Escherichia coli rosseta competent cells assessed as binding constant by isothermal titration calorimetry"}, "[3]": {"experiment": "Binding affinity to influenza virus PB2 transformed into Escherichia coli rosseta competent cells by surface plasmon resonance analysis", "design": "species or system unidentified influenza virus"}, "[4]": {"experiment": "Binding affinity to influenza virus PB2 transformed into Escherichia coli rosseta competent cells by isothermal titration calorimetry", "design": "species or system unidentified influenza virus"}, "[5]": {"conditions": "Influenza A virus, A/Puerto Rico/8/1934(H1N1), MDCK"}}, "data": [{"smiles": "CCn1cc(-c2c[nH]c3ncc(F)cc23)nc(N[C@H]2C3CCC(CC3)[C@@H]2C(=O)O)c1=O", "values": [{"measurement": "CC50 at 72 h", "setting": "[1]", "value": "> 100000", "unit": "nM"}, {"measurement": "EC50", "setting": "Influenza A virus; [5]", "value": 1020, "unit": "nM"}, {"measurement": "K", "setting": "[2]", "value": 5.19, "unit": "×10⁶ /M"}, {"measurement": "Kd", "setting": "[3]", "value": 110, "unit": "nM"}, {"measurement": "Kd", "setting": "[4]", "value": 190, "unit": "nM"}]}, {"smiles": "CCCn1cc(-c2c[nH]c3ncc(F)cc23)nc(N[C@H]2C3CCC(CC3)[C@@H]2C(=O)O)c1=O", "values": [{"measurement": "Kd", "setting": "[3]", "value": 320, "unit": "nM"}]}, {"smiles": "O=C(O)[C@H]1C2CCC(CC2)[C@@H]1Nc1nc(-c2c[nH]c3ncc(F)cc23)cn(Cc2cccs2)c1=O", "values": [{"measurement": "Kd", "setting": "[3]", "value": 1040, "unit": "nM"}]}, {"smiles": "Cn1cc(-c2c[nH]c3ncc(F)cc23)nc(NCCc2cccs2)c1=O", "values": [{"measurement": "Kd", "setting": "[3]", "value": "> 50000", "unit": "nM"}]}, {"smiles": "O=C(O)[C@H]1C2CCC(CC2)[C@@H]1Nc1nc(-c2c[nH]c3ncc(F)cc23)cn(-c2ccccc2)c1=O", "values": [{"measurement": "Kd", "setting": "[3]", "value": 1000, "unit": "nM"}]}, {"smiles": "O=C(O)[C@H]1C2CCC(CC2)[C@@H]1Nc1nc(-c2c[nH]c3ncc(F)cc23)cn(-c2ccc(F)c(F)c2)c1=O", "values": [{"measurement": "Kd", "setting": "[3]", "value": 5330, "unit": "nM"}]}, {"smiles": "Cn1cc(-c2c[nH]c3ncc(F)cc23)nc(NCCCN2CCOCC2)c1=O", "values": [{"measurement": "Kd", "setting": "[3]", "value": "> 50000", "unit": "nM"}]}, {"smiles": "C[C@H](Nc1nc(-c2c[nH]c3ncc(F)cc23)cn(C)c1=O)c1cccc(F)c1", "values": [{"measurement": "Kd", "setting": "[3]", "value": 25700, "unit": "nM"}]}, {"smiles": "O=C(O)[C@H]1C2CCC(CC2)[C@@H]1Nc1nc(-c2c[nH]c3ncc(F)cc23)cn(CC(F)F)c1=O", "values": [{"measurement": "Kd", "setting": "[3]", "value": 160, "unit": "nM"}]}, {"smiles": "O=C(O)[C@H]1C2CCC(CC2)[C@@H]1Nc1nc(-c2c[nH]c3ncc(F)cc23)ncc1F", "note": "[PIMODIVIR]", "values": [{"measurement": "CC50 at 72 h", "setting": "[1]", "value": "> 100000", "unit": "nM"}, {"measurement": "EC50", "setting": "Influenza A virus; [5]", "value": 2, "unit": "nM"}, {"measurement": "Kd", "setting": "[3]", "value": 70, "unit": "nM"}, {"measurement": "Kd", "setting": "[4]", "value": 50, "unit": "nM"}]}, {"smiles": "Cc1cc(C)cc(-n2cc(-c3c[nH]c4ncc(F)cc34)nc(N[C@H]3C4CCC(CC4)[C@@H]3C(=O)O)c2=O)c1", "values": [{"measurement": "Kd", "setting": "[3]", "value": 4900, "unit": "nM"}]}, {"smiles": "O=C(O)[C@H]1C2CCC(CC2)[C@@H]1Nc1nc(-c2c[nH]c3ncc(F)cc23)cn(CC(F)(F)F)c1=O", "values": [{"measurement": "Kd", "setting": "[3]", "value": 170, "unit": "nM"}]}, {"smiles": "O=C(O)[C@H]1C2CCC(CC2)[C@@H]1Nc1nc(-c2c[nH]c3ncc(F)cc23)cn(Cc2cccc(C(F)(F)F)c2)c1=O", "values": [{"measurement": "Kd", "setting": "[3]", "value": 2130, "unit": "nM"}]}, {"smiles": "O=C(O)[C@H]1C2CCC(CC2)[C@@H]1Nc1nc(-c2c[nH]c3ncc(F)cc23)cn(C2CCCC2)c1=O", "values": [{"measurement": "Kd", "setting": "[3]", "value": 490, "unit": "nM"}]}, {"smiles": "CCOc1ccc(-n2cc(-c3c[nH]c4ncc(F)cc34)nc(N[C@H]3C4CCC(CC4)[C@@H]3C(=O)O)c2=O)cc1", "values": [{"measurement": "Kd", "setting": "[3]", "value": 6230, "unit": "nM"}]}, {"smiles": "CC1CCCCC1Nc1nc(-c2c[nH]c3ncc(F)cc23)cn(C)c1=O", "note": "(stereo not given)", "values": [{"measurement": "Kd", "setting": "[3]", "value": 5230, "unit": "nM"}]}, {"smiles": "CC[C@H](Nc1nc(-c2c[nH]c3ncc(F)cc23)cn(C)c1=O)c1ccccc1", "values": [{"measurement": "Kd", "setting": "[3]", "value": 10300, "unit": "nM"}]}, {"smiles": "NC(=O)c1ncn([C@@H]2O[C@H](CO)[C@@H](O)[C@H]2O)n1", "note": "[RIBAVIRIN]", "values": [{"measurement": "CC50 at 72 h", "setting": "[1]", "value": "> 100000", "unit": "nM"}, {"measurement": "EC50", "setting": "Influenza A virus", "value": 9120, "unit": "nM"}]}, {"smiles": "COc1ccc(-n2cc(-c3c[nH]c4ncc(F)cc34)nc(N[C@H]3C4CCC(CC4)[C@@H]3C(=O)O)c2=O)cc1", "values": [{"measurement": "Kd", "setting": "[3]", "value": 3930, "unit": "nM"}]}, {"smiles": "CC(C)(C)C1CCC(n2cc(-c3c[nH]c4ncc(F)cc34)nc(N[C@H]3C4CCC(CC4)[C@@H]3C(=O)O)c2=O)CC1", "note": "(stereo not given in full)", "values": [{"measurement": "Kd", "setting": "[3]", "value": 16300, "unit": "nM"}]}, {"smiles": "O=C(O)[C@H]1C2CCC(CC2)[C@@H]1Nc1nc(-c2c[nH]c3ncc(F)cc23)cn(C2CCCCC2)c1=O", "values": [{"measurement": "Kd", "setting": "[3]", "value": 740, "unit": "nM"}]}, {"smiles": "Cn1cc(-c2c[nH]c3ncc(F)cc23)nc(NC23CC4CC(CC(O)(C4)C2)C3)c1=O", "values": [{"measurement": "Kd", "setting": "[3]", "value": 2050, "unit": "nM"}]}, {"smiles": "CC(C1CC1)n1cc(-c2c[nH]c3ncc(F)cc23)nc(N[C@H]2C3CCC(CC3)[C@@H]2C(=O)O)c1=O", "note": "(stereo not given in full)", "values": [{"measurement": "Kd", "setting": "[3]", "value": 530, "unit": "nM"}]}, {"smiles": "O=C(O)[C@H]1C2CCC(CC2)[C@@H]1Nc1nc(-c2c[nH]c3ncc(F)cc23)cn(C2CCC2)c1=O", "values": [{"measurement": "Kd", "setting": "[3]", "value": 470, "unit": "nM"}]}, {"smiles": "Cn1cc(-c2c[nH]c3ncc(F)cc23)nc(NC[C@@H]2CCCO2)c1=O", "values": [{"measurement": "Kd", "setting": "[3]", "value": 10200, "unit": "nM"}]}, {"smiles": "Cn1cc(-c2c[nH]c3ncc(F)cc23)nc(NC[C@H]2CCCO2)c1=O", "values": [{"measurement": "Kd", "setting": "[3]", "value": 8270, "unit": "nM"}]}, {"smiles": "O=C(O)[C@H]1C2CCC(CC2)[C@@H]1Nc1nc(-c2c[nH]c3ncc(F)cc23)cn(C2CC2)c1=O", "values": [{"measurement": "Kd", "setting": "[3]", "value": 320, "unit": "nM"}]}, {"smiles": "O=C(O)[C@H]1C2CCC(CC2)[C@@H]1Nc1nc(-c2c[nH]c3ncc(F)cc23)cn(-c2ccc(C(F)(F)F)cc2)c1=O", "values": [{"measurement": "Kd", "setting": "[3]", "value": 7150, "unit": "nM"}]}, {"smiles": "Cn1cc(-c2c[nH]c3ncc(F)cc23)nc(N[C@@H](Cc2ccccc2)C(N)=O)c1=O", "values": [{"measurement": "Kd", "setting": "[3]", "value": 22300, "unit": "nM"}]}, {"smiles": "CC(C)C(CC(=O)O)Nc1nc(-c2c[nH]c3ncc(F)cc23)cn(C)c1=O", "note": "(stereo not given)", "values": [{"measurement": "Kd", "setting": "[3]", "value": 3470, "unit": "nM"}]}, {"smiles": "O=C(O)Cn1cc(-c2c[nH]c3ncc(F)cc23)nc(N[C@H]2C3CCC(CC3)[C@@H]2C(=O)O)c1=O", "values": [{"measurement": "Kd", "setting": "[3]", "value": 500, "unit": "nM"}]}, {"smiles": "Cn1cc(-c2c[nH]c3ncc(F)cc23)nc(N[C@H]2C3CCC(CC3)[C@@H]2C(=O)O)c1=O", "values": [{"measurement": "Kd", "setting": "[3]", "value": 270, "unit": "nM"}]}]}
